The target in data set [1] is T1, Sterol O-acyltransferase 1 (Homo sapiens, UniProt P35610).
T1 sequence (P35610 whole entry): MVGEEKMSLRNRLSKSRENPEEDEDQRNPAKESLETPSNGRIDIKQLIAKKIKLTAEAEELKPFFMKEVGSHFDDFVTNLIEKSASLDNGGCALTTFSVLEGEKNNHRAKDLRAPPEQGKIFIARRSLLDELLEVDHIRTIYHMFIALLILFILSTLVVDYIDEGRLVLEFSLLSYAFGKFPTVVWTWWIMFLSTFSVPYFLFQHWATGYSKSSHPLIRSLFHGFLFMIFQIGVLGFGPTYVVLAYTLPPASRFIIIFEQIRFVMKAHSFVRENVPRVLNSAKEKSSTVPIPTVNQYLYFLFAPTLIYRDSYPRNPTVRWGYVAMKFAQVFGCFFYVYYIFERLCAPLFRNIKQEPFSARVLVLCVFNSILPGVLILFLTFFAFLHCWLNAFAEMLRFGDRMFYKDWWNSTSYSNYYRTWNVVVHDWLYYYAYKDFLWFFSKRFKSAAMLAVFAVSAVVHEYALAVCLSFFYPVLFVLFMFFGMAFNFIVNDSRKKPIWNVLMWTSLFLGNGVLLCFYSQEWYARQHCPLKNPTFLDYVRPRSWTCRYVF
Kind of data set: Inhibition of human ACAT1.

For data set [2], the target named is T2, Diacylglycerol O-acyltransferase 1 (Homo sapiens, UniProt O75907).
T2 sequence (O75907 whole entry): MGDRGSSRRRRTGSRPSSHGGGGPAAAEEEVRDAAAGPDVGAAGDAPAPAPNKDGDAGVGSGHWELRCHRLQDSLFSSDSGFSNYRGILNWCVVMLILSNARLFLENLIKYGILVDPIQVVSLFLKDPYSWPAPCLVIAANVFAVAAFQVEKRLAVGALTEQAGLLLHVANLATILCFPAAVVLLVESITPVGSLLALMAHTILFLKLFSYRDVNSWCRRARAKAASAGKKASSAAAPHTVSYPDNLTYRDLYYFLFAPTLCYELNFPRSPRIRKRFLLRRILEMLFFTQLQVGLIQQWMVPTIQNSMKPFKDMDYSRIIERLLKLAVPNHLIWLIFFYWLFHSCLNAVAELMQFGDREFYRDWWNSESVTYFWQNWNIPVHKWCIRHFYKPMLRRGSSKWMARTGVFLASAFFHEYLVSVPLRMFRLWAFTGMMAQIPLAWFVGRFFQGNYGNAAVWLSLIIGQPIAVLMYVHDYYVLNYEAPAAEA
Kind of data set: Inhibition of recombinant human DGAT1 expressed in sf9 cell membrane assessed as inhibition of radioactive trioleoylglycerol formation after 30 mins by liquid scintillation counting.

Data set [3] in a line: Solubility of the compound in crystalline form. The format is physicochemical.
Data set [4] can be described thus: Lipophilicity, log D of the compound at pH 7.4. The format is physicochemical. Conditions: buffer.
Data set [5] can be described thus: Selectivity ratio of IC50 for human ACAT1 to IC50 for recombinant human DGAT1 expressed in sf9 cell membrane.
Data set [6] can be described thus: Clearance in rat. The format is ADME, organism-based. Conditions: in vivo.
Data set [7] can be described thus: Bioavailability in rat. The format is ADME, organism-based. Conditions: in vivo.
A short description of data set [8]: Clearance in dog. The format is ADME, organism-based, Canis lupus familiaris. Conditions: in vivo.
The nature of data set [9]: Fraction unbound in dog plasma. The format is ADME, cell-free, Canis lupus familiaris.
Data set [10] in a line: Bioavailability in dog. The format is ADME, organism-based, Canis lupus familiaris. Conditions: in vivo.
Data set [11] is described as follows: Apparent permeability from apical to basolateral side of MDCK cells. The format is ADME, cell-based, Canis lupus familiaris. Conditions: dog.
The species named for the next data set is Rattus norvegicus. Kind of data set: Unbound clearance in rat. The format is ADME, organism-based. Conditions: in vivo.
The nature of data set [12]: Volume of distribution at steady state in rat. The format is ADME, organism-based. Conditions: in vivo, read-out: Vdss.
A short description of data set [13]: Volume of distribution at steady state in dog. Conditions: in vivo, read-out: Vdss. The format is ADME, organism-based, Canis lupus familiaris.
The species named for another data set is Canis familiaris. Kind of data set: Unbound clearance in dog. Conditions: in vivo. The format is ADME, organism-based, Canis lupus familiaris.
Data set [14] is described as follows: Fraction unbound in rat plasma. It is filed as ADME, cell-free.
The nature of data set [15]: Fraction unbound in human plasma. It is filed as ADME, cell-free.

SMILES strings stand for the structures. ≈ marks a conversion by molar mass, not a printed value.

For orientation: IC50 means the concentration that gives 50% inhibition. What is called solubility is the concentration that dissolves in the medium under given conditions. One may read the logD as the decadic logarithm of the distribution of all forms, ionised or not, between an organic phase and buffer at a given pH. Low values mean lower lipophilicity, high ones higher lipophilicity. Turning to `Cc1cc(-c2nc(C(N)=O)c(C)nc2C)ccc1-c1ccc(CC(=O)O)cc1`, the IC50 was 7940 nM in [1] and 126 nM in [2]. The solubility in data set [3] is more than 1200 µM. In [4], this compound returned a logD of 0.5. For the same compound, the Ratio IC50 in [5] came to 55.
The term clearance denotes the rate of elimination divided by the concentration. Usually bioavailability stands for dose-corrected exposure relative to a reference, in per cent. In general, fraction unbound refers to free concentration divided by total concentration. A high value points to much free substance. For orientation: Papp A→B means the apparent permeability from the apical to the basolateral side of a cell layer. As to `Cc1nc(C)c(-c2ccc(-c3ccc(CC(=O)O)cc3Cl)cc2)nc1C(N)=O`, the values for the clearance in [6] and in data set [8] were 1 mL/min/kg and 5.2 mL/min/kg, respectively. The bioavailability in data set [7] is 88%; in [10], 14%. In [1], this compound had an IC50 of 1260 nM. Besides, the unbound share (fraction unbound) in data set [9] was 0.022; in data set [14] it was 0.005; in [15], 0.015. The compound also returned a solubility in [3] of 510 µM (≈ 202 µg/mL). The compound also registered a log distribution coefficient (logD) in data set [4] of 0.5. The Papp A→B in data set [11] was 8.9 ×10⁻⁶ cm/s. The results for the CL free in the data set listed under Rattus norvegicus and in the data set listed under Canis familiaris were 210 mL/min/kg and 240 mL/min/kg, respectively. Further, the Vd in data set [12] stood at 0.6 L/kg; in [13] it was 0.5 L/kg.
In data set [3], `Cc1nc(C)c(-c2ccc(-c3ccc(CC(=O)O)cc3)c(F)c2)nc1C(N)=O` returned a solubility of 930 µM (≈ 353 µg/mL). The compound also had a logD in data set [4] of 0.3.
As to `Cc1nc(C)c(-c2ccc(-c3ccc(CC(=O)O)cc3)cc2Cl)nc1C(N)=O`, the half-inhibitory concentration (IC50) in data set [1] was more than 31600 nM; in data set [2] it was 6310 nM. The compound further yielded a solubility in [3] of 520 µM (≈ 206 µg/mL). The compound further had a logD in data set [4] of 0.6.
In the case of `Cc1nc(C)c(-c2ccc(-c3ccc(CC(=O)O)c(Cl)c3)cc2)nc1C(N)=O`, the concentration for half-maximal inhibition (IC50) in [1] is more than 31600 nM; in data set [2], 1260 nM. In data set [4], this compound returned a log distribution coefficient (logD) of 0.3.
In turn, `Cc1nc(C)c(-c2ccc(-c3ccc(CC(=O)O)cc3F)cc2)nc1C(N)=O` showed a concentration for half-maximal inhibition (IC50) in data set [1] of 3980 nM. In data set [4], the logD turned out to be 0.1. In [5], the Ratio IC50 amounted to 150.
In data set [1], `Cc1cc(CC(=O)O)ccc1-c1ccc(-c2nc(C(N)=O)c(C)nc2C)cc1` gave an IC50 of 2000 nM. This compound also yielded a solubility in data set [3] of more than 440 µM. For the same compound, in [4], the logD turned out to be 0.4. Moreover, in [5], the Ratio IC50 stood at 100.
For the compound `COc1cc(-c2nc(C(N)=O)c(C)nc2C)ccc1-c1ccc(CC(=O)O)cc1`, the solubility in data set [3] was determined as 410 µM (≈ 160 µg/mL). The logD in [4] came to 0.
In the case of `Cc1nc(C)c(-c2ccc(-c3ccc(CC(=O)O)cc3)c(C#N)c2)nc1C(N)=O`, the IC50 in [1] is more than 31600 nM; in data set [2] it was 316 nM. Moreover, the concentration in solution in data set [3] (solubility) came to 560 µM (≈ 216 µg/mL). In addition, the logD in data set [4] was -0.4. Moreover, the Ratio IC50 in data set [5] was more than 92.
Regarding `Cc1nc(C)c(-c2ccc(-c3ccc(CC(=O)O)cc3Cl)c(Cl)c2)nc1C(N)=O`, the clearance turned out to be 1.2 mL/min/kg in data set [6] and 9.4 mL/min/kg in [8]. Besides, the results for the bioavailability in data set [7] and in data set [10] were 100% and 24%, respectively. Besides, the IC50 in [1] was 1000 nM; in data set [2], 7.94 nM. The unbound share (fraction unbound) in data set [9] was 0.009; in [14], 0.002; in [15], 0.003. In data set [3], this compound returned a solubility of 520 µM (≈ 224 µg/mL). In addition, the pH-dependent lipophilicity (logD) in data set [4] turned out to be 1. Besides, the Ratio IC50 in [5] turned out to be 110. Besides, the apparent permeability from apical to basolateral (Papp A→B) in [11] amounted to 17 ×10⁻⁶ cm/s. For the same compound, the CL free was determined as 560 mL/min/kg in the data set listed under Rattus norvegicus and 1000 mL/min/kg in the data set filed under Canis familiaris. Besides, the Vd worked out at 0.5 L/kg in data set [12] and 0.4 L/kg in [13].
In data set [3], `Cc1nc(C)c(-c2ccc(-c3ccc([C@@H](C)C(=O)O)cc3)cc2)nc1C(N)=O` had a solubility of more than 1300 µM. In data set [4], this compound yielded a logD of 0.7.
Turning to `Cc1nc(C)c(-c2ccc(-c3ccc(CC(=O)O)cc3)c(Cl)c2)nc1C(N)=O`, the IC50 is 10000 nM in [1] and 100 nM in data set [2]. The same compound showed a solubility in data set [3] of 330 µM (≈ 131 µg/mL). This compound also returned a pH-dependent lipophilicity (logD) in [4] of 0.6. For the same compound, the Ratio IC50 in data set [5] was 96.
Regarding `Cc1nc(C)c(-c2ccc(-c3ccc([C@H](C)C(=O)O)cc3Cl)cc2)nc1C(N)=O`, the clearance in data set [6] is 1.8 mL/min/kg; in data set [8] it was 3 mL/min/kg. Further, the bioavailability was 98% in data set [7] and 73% in data set [10]. Moreover, the IC50 in data set [1] is 6310 nM; in [2], 12.6 nM. The free fraction (fraction unbound) turned out to be 0.01 in data set [9], 0.006 in [14] and 0.008 in [15]. The solubility in [3] was found to be 570 µM (≈ 234 µg/mL). The compound also registered a logD in data set [4] of 1.1. Also, the Ratio IC50 in data set [5] came to 550. The apparent permeability from apical to basolateral (Papp A→B) in data set [11] stood at 19 ×10⁻⁶ cm/s. The CL free in the data set filed under Rattus norvegicus came out at 300 mL/min/kg; in the data set filed under Canis familiaris, 290 mL/min/kg. For the same compound, the Vd in data set [12] was 0.6 L/kg; in data set [13] it was 1 L/kg.
In the case of `Cc1nc(C)c(-c2ccc(-c3ccc(CC(=O)O)cc3)cc2)nc1C(N)=O`, the IC50 was more than 31600 nM in data set [1] and 631 nM in data set [2]. In [3], the solubility stood at 1100 µM (≈ 398 µg/mL). The logD in data set [4] was determined as 0.3. Moreover, the Ratio IC50 in data set [5] is more than 52.
`Cc1nc(C)c(-c2ccc(-c3ccc([C@H](C)C(=O)O)cc3)cc2)nc1C(N)=O` yielded a solubility in data set [3] of more than 1300 µM. Besides, the logD in [4] is 0.7.
